Measured values: ChEMBL document CHEMBL3091347, “Comparison of Multiple Linear Regressions and Neural Networks based QSAR models for the design of new antitubercular compounds” (Eur J Med Chem, 2013)
Converted amounts (≈) assume the structure as drawn.

Key:
[1] = Lipophilicity, log P of the compound; conditions: octanol/water
[2] = system: Mycobacterium tuberculosis; assay: Antitubercular activity against Mycobacterium tuberculosis; type: functional; conditions: for MIC: Mycobacterium tuberculosis
[3] = system: Mycobacterium tuberculosis; assay: Antitubercular activity against Mycobacterium tuberculosis H37Rv; type: functional; conditions: for MIC: Mycobacterium tuberculosis, H37Rv

SMILES	logP ([1]; logP)	log(1/MIC) [2]	MIC [2] [µg/mL]	log(1/MIC) [3]	MIC [3] [µg/mL]	logP [1]
NNC(=O)c1ccc([N+](=O)[O-])o1	-0.396	0.1	0.8 (≈ 4.68 µM)			
NNC(=O)c1ccccc1[N+](=O)[O-]	-1.1	-2.48	300 (≈ 1660 µM)			
NNC(=O)c1c[nH]cn1	-2.85	-0.9	8 (≈ 63.4 µM)			
NNC(=O)c1ccnc2ccccc12	-1.35	-1.9	80 (≈ 427 µM)			
NNC(=O)c1cccc([N+](=O)[O-])c1	-1.1	0.22	0.6 (≈ 3.31 µM)			
CN(C)C(=O)N1CCC(C(=O)NN)CC1	-3.12	-2.78	600 (≈ 2800 µM)			
CC(=O)NNC(=O)c1ccncc1	-3.45	-1.18	15 (≈ 83.7 µM)			
CC(=O)N(Nc1ccccc1)c1ccccc1	1.31	-2	100 (≈ 442 µM)			
N/C(COc1ccc(Cl)cc1)=N\NC(=O)c1ccncc1	1.34			-0.494	3.12 (≈ 10.2 µM)	
O=C(NNC(=O)c1ccco1)c1ccco1	1.38	-2	100 (≈ 454 µM)			
Cc1ccccc1OC/C(N)=N/NC(=O)c1ccncc1	1.27			-1.097	12.5 (≈ 44 µM)	
C/C(=N\NC(=O)c1ccncc1)c1cccc(CN2CCN(c3ccc(F)cc3)CC2)c1O	3.68			0.3963	0.4 (≈ 0.894 µM)	
CCCCCCCCC(=O)NNC(=O)c1ccncc1	2.22			1.602	0.03 (≈ 0.108 µM)	
Cc1cccc(OC/C(N)=N/NC(=O)c2ccncc2)c1	1.27			-0.494	3.12 (≈ 11 µM)	
Cc1ccc(OC/C(N)=N/NC(=O)c2ccncc2)cc1	1.27			-0.796	6.25 (≈ 22 µM)	
N/C(COc1cccc(Cl)c1)=N\NC(=O)c1ccncc1	1.34			-0.494	3.12 (≈ 10.2 µM)	
NNC(=O)CN1CSC(N)=N1		-2.48	300 (≈ 1710 µM)			-4.033
C/C(=N\NC(=O)c1ccncc1)c1cccc(CN(C)C)c1O	1.19			0.09006	0.81 (≈ 2.59 µM)	
CCN(CC)Cc1cccc(/C(C)=N/NC(=O)c2ccncc2)c1O	2.09			0.09061	0.81 (≈ 2.38 µM)	
CCCCN(CCCC)Cc1cccc(/C(C)=N/NC(=O)c2ccncc2)c1O	4.05			-0.2078	1.61 (≈ 4.06 µM)	
C/C(=N\NC(=O)c1ccncc1)c1cccc(CN2CCCCC2)c1O	2.55	-0.21	1.62 (≈ 4.6 µM)			

SMILES	logP ([1]; logP)	log(1/MIC) [2]	MIC [2] [µg/mL]	log(1/MIC) [3]	MIC [3] [µg/mL]	logP [1]
C/C(=N\NC(=O)c1ccncc1)c1cccc(CN2CCCC2)c1O	1.99			-0.2108	1.62 (≈ 4.79 µM)	
C/C(=N\NC(=O)c1ccncc1)c1cccc(CN2CCOCC2)c1O	1.61			0.09122	0.81 (≈ 2.29 µM)	
C/C(=N\NC(=O)c1ccncc1)c1cccc(CN(c2ccccc2)c2ccccc2)c1O	4.12			-0.2064	1.61 (≈ 3.69 µM)	
C/C(=N\NC(=O)c1ccncc1)c1cccc(CN2CCNCC2)c1O	1.05			0.6866	0.21 (≈ 0.594 µM)	
C/C(=N\NC(=O)c1ccncc1)c1cccc(CN2CCN(C)CC2)c1O	1.99	-0.52	3.28 (≈ 8.93 µM)			
C/C(=N\NC(=O)c1ccncc1)c1cccc(CN(Cc2ccccc2)Cc2ccccc2)c1O	4.33			-0.2063	1.61 (≈ 3.47 µM)	
C/C(=N\NC(=O)c1ccncc1)c1cccc(CN2CCN(c3cc4c(cc3F)c(=O)c(C(=O)O)cn4C3CC3)CC2)c1O	4.2			0.09913	0.8 (≈ 1.34 µM)	
CCn1cc(C(=O)O)c(=O)c2cc(F)c(N3CCN(Cc4cccc(/C(C)=N/NC(=O)c5ccncc5)c4O)C(C)C3)c(F)c21 (stereo unspecified)	4.81			0.09873	0.8 (≈ 1.29 µM)	
C/C(=N\NC(=O)c1ccncc1)c1cccc(CN2CCN(c3ccccn3)CC2)c1O	2.59			0.3979	0.4 (≈ 0.929 µM)	
C/C(=N\NC(=O)c1ccncc1)c1cccc(CN2CCN(Cc3ccccc3)CC2)c1O	3.83			0.3951	0.4 (≈ 0.902 µM)	
CC(C)=NNC(=O)c1cccs1	-0.404	0.35	0.45 (≈ 2.47 µM)			
CN(C)NC(=O)c1ccco1	0.653	-2.48	300 (≈ 1950 µM)			
CC(C)/C=N\NC(=O)c1ccco1	1.19	0.82	0.15 (≈ 0.832 µM)			
O=C(N/N=C/C(O)C(O)C(O)C(O)CO)c1ccco1 (stereo unspecified)	-3.86	-0.78	6 (≈ 20.8 µM)			
NNC(=O)C1CCCO1 (stereo unspecified)	-2.12	0.52	0.3 (≈ 2.31 µM)			
NNC(=O)c1cccs1	-1.2	-0.9	8 (≈ 56.3 µM)			
NNS(=O)(=O)c1ccc(N)cc1	-1.85	-1.4	25 (≈ 134 µM)			
CC(=O)NNC(C)=O	-3.91	-2.78	600 (≈ 5170 µM)			
CON1C(=O)C(=O)N1c1ccc([N+](=O)[O-])cc1	0.963	1.52	0.03 (≈ 0.126 µM)			
Nc1ccc(S(=O)(=O)NNC(=O)c2ccncc2)cc1	-2.51	-2.78	600 (≈ 2050 µM)			
Cc1ncnc(O)c1C(=O)NN	-2.88	-2.6	400 (≈ 2380 µM)			

SMILES	logP ([1]; logP)	log(1/MIC) [2]	MIC [2] [µg/mL]	log(1/MIC) [3]	MIC [3] [µg/mL]	logP [1]
N/N=C/C(O)C(O)C(O)C(CC(=O)c1ccncc1)C(=O)c1ccncc1 (stereo unspecified)		1.4	0.04 (≈ 0.107 µM)			-5.16
CCCc1cc(C(=O)NN)ccn1	-0.615			-0.9953	9.89 (≈ 55.2 µM)	
CC(C)Cc1cc(C(=O)NN)ccn1	-0.216	-1.94	87 (≈ 450 µM)			
COc1cc(C(=O)NN)ccn1	-2.03			-1.408	25.6 (≈ 153 µM)	
CCOc1cc(C(=O)NN)ccn1	-1.5	-1.91	81.5 (≈ 450 µM)			
NNC(=O)c1ccnc(N)c1	-2.84			-0.3436	2.21 (≈ 14.5 µM)	
CC(=O)Nc1cc(C(=O)NN)ccn1	-2.93	-2.62	418 (≈ 2150 µM)			
CC(=O)NCc1cc(C(=O)NN)ccn1	-3.75			-1.704	50.6 (≈ 243 µM)	
CCN(CC)c1cc(C(=O)NN)ccn1	-0.546	-2.17	149 (≈ 717 µM)			
NNC(=O)c1ccnc(Cl)c1	-1.61	-1.83	67.3 (≈ 392 µM)			
NNC(=O)c1ccnc(I)c1	-1.2			-1.825	66.8 (≈ 254 µM)	
NNC(=O)c1ccnc([N+](=O)[O-])c1	-2.21	-1.83	67.6 (≈ 371 µM)			
NNC(=O)c1ccnc(-c2ccccc2)c1	-0.634	-1.03	10.7 (≈ 50 µM)			
NNC(=O)c1ccnc(Cc2ccccc2)c1	-0.105			-0.942	8.75 (≈ 38.5 µM)	
C=Cc1cc(C(=O)NN)ccn1	-1.69			-0.7567	5.71 (≈ 35 µM)	
CC(O)(NNC(=O)c1ccncc1)C(=O)O (stereo unspecified)	-2.78	1.22	0.06 (≈ 0.266 µM)			
O=C(NNC(O)C(Cl)(Cl)Cl)c1ccncc1 (stereo unspecified)		1.4	0.04 (≈ 0.141 µM)			-1.22
CC(C)(C#N)NNC(=O)c1ccncc1	-0.976	1.22	0.06 (≈ 0.294 µM)			
CCC(CC)=NNC(=O)c1ccncc1	-0.469	1.7	0.02 (≈ 0.0974 µM)			
CCCCC/C(C)=N/NC(=O)c1ccncc1	0.589	1.52	0.03 (≈ 0.129 µM)			
CCN(CC)c1ccc(/C=N/NC(=O)c2ccncc2)cc1	2.53	0.22	0.6 (≈ 2.02 µM)			

SMILES	logP ([1]; logP)	log(1/MIC) [2]	MIC [2] [µg/mL]	log(1/MIC) [3]	MIC [3] [µg/mL]	logP [1]
CCN(CC)CCN(C)c1ccc(/C=N/NC(=O)c2ccncc2)cc1	2.43	1.1	0.08 (≈ 0.226 µM)			
N/N=C/C(CC(=O)c1ccncc1)C(=O)c1ccncc1 (stereo unspecified)	-2.83	0.82	0.15 (≈ 0.531 µM)			
CC(C)/C=N\NC(=O)c1ccncc1	-0.998	1	0.1 (≈ 0.523 µM)			
CC(C)CNNC(=O)c1ccncc1	-0.719	1	0.1 (≈ 0.517 µM)			
CCC(C)NNC(=O)c1ccncc1 (stereo unspecified)	-0.719	0.4	0.4 (≈ 2.07 µM)			
NNC(=O)c1ccccn1	-1.95	0.82	0.15 (≈ 1.09 µM)			
NNC(=O)c1ccnc(F)c1	-2.18	-1.61	40.3 (≈ 260 µM)			
NNC(=O)c1c[nH]c(S)n1	-2.26	-2.4	250 (≈ 1580 µM)			
Cc1cnccc1C(=O)NN	-1.67	-2.3	200 (≈ 1320 µM)			
NNC(=O)Cc1ccccc1	-1.22	-1.08	12 (≈ 79.9 µM)			
NNC(=O)c1ccco1	-0.139	1.22	0.06 (≈ 0.476 µM)			
NNC(=O)c1ccnc(Br)c1	-1.46	-2.12	133 (≈ 616 µM)			
C/C=N/NC(=O)c1ccncc1	-1.93	1.4	0.04 (≈ 0.245 µM)			
CN1CCC(C(=O)NN)CC1	-2.49	-2.78	600 (≈ 3820 µM)			
O=C(NO)c1ccncc1	-2.65	-2.08	120 (≈ 869 µM)			
CC(C)=NNC(=O)c1ccncc1	-1.53	1.7	0.02 (≈ 0.113 µM)			
O=C(NN=C1CCCCC1)c1ccncc1	-0.334	2.22	0.01 (≈ 0.046 µM)			
NNC(=O)c1ccccc1 [BENZOIC ACID HYDRAZIDE]		0.22	0.6 (≈ 4.41 µM)			-0.845
CC(C)NNC(=O)c1ccncc1 [IPRONIAZID]		0.4	0.4 (≈ 2.23 µM)			-1.248
